Here are results for one molecule from US9603831B2, “Artemisinin and its derivatives for use in the treatment of kidney disease” (Queen Mary & Westfield College, University of London, priority 2012, dated 2017).

What all share (assay type): in vivo
Assay [1] relates to rats subjected to haemorrhagic shock. The assay can be described thus: Organ injury and dysfunction induced by trauma haemorrhage (haemorrhagic shock) in the rat. Particulars: for rise in serum creatinine / rise in serum urea: 4 h after resuscitation; for rise in serum creatinine / rise in serum urea / rise in serum ALT / rise in serum AST / rise in serum creatinine kinase: vs HS-rats; for decline in MAP caused by haemorrhage during the resuscitation phase: vs HS Control. On the procedure: Thirty-five male Wistar rats (271±5 g) were anaesthetised with sodium thiopentone (120 mg/kg i.p., LINK Pharmaceuticals Ltd., West Sussex, UK) and anaesthesia was maintained by supplementary injections (˜10 mg/kg i.v.) of sodium thiopentone as and when required. The animals were placed onto a thermostatically controlled heating mat (Harvard Apparatus Ltd., Kent, UK) and body temperature was maintained at 37±1° C. by means of a rectal probe attached to a homeothermic blanket. A tracheotomy was performed by inserting into the lumen of the trachea a small length of polyethylene tubing [Internal Diameter (ID) 1.67 mm, Portex, Kent, UK] to maintain airway patency and facilitate spontaneous respiration. […] The right carotid artery was cannulated (ID 0.58 mm, Portex) to facilitate the withdrawal of blood using a heparinised syringe. The right jugular vein was cannulated (ID 0.40 mm, Portex) for the administration of Ringer's Lactate (RL), shed blood, test compounds and/or vehicle. The bladder was also cannulated (ID 0.76 mm, Portex) for the collection of urine. Upon completion of the surgical procedure, cardiovascular parameters were allowed to stabilise for a period of 15 min.
After the stabilisation period, blood was withdrawn via the cannula inserted in the right carotid artery in order to achieve a fall in MAP to 35±5 mmHg within 10 min. From this point onwards, MAP was maintained at 35±5 mmHg for a period of 90 min either by further withdrawal of blood during the compensation phase (MAP rises following blood withdrawal due to sympathetic response) or administration of Ringer's Lactate i.v. during the decompensation phase (animals are unable to increase and maintain high MAP). […] At 90 min after initiation of haemorrhage, resuscitation was performed with 20 ml/kg Ringer's Lactate i.v. over a period of 10 min and then half the shed blood mixed with 100 u/ml heparinised saline i.v. over a period of 50 min. At the end of 1 h resuscitation, an i.v. infusion of Ringer's Lactate (1.5 ml/kg/h) was started as fluid replacement and maintained for a further 3 h.
Four hours after the onset of resuscitation, 1.2 ml blood was collected from the right carotid artery and decanted into serum gel tubes (Sarstedt, Numbrecht, Germany), after which the heart was removed to terminate the experiment. The samples were centrifuged (9900 rpm for 3 min) to separate serum from which urea, creatinine, aspartate aminotransferase (AST), alanine aminotransferase (ALT) and creatinine kinase (CK) were measured within 24 hours (Idexx Laboratories Ltd., West Yorkshire, UK). Urine collected during the last 3 h of the experiment was analysed for creatinine levels in order to estimate creatinine clearance as an indicator of glomerular dysfunction and was calculated as follows:
[formula] 1.4 Experimental Design
Rats were randomly allocated into the following groups: • (i) Sham (n=4) • (ii) HS Control (n=10) • (iii) HS+Artesunate 1 mg/kg (n=6) • (iv) HS+Artesunate 3 mg/kg (n=7) • (v) HS+Artesunate 10 mg/kg (n=8)
Sham-operated rats underwent identical surgical procedures but without haemorrhage or resuscitation. Animals received either 10% DMSO (1 ml/kg i.v.) or artesunate (1, 3 or 10 mg/kg i.v.) on resuscitation.
All values described in the text and figures are expressed as mean±standard error of the mean (SEM) for n observations. Each data point represents biochemical measurements obtained from up to 10 separate animals. Statistical analysis was carried out using GraphPad Prism 5.03 (GraphPad Software, San Diego, Calif., USA). Data without repeated measurements was assessed by one-way ANOVA followed by Dunnett's post hoc test. Data with repeated measurements was assessed by two-way ANOVA followed by Bonferroni's post hoc test. A P value of less than 0.05 was considered to be significant.

Assay [2] deals with rats subjected to unilateral renal ischaemia/reperfusion. The assay can be described thus: Late administration in a recovery rat model of unilateral renal ischaemia/reperfusion injury. As to conditions: 0.3 mg/kg i.v. 24 h into reperfusion, measured at 48 h reperfusion, mean±SEM, P<0.05.
Procedure: Thirty-one male Wistar rats (240-270 g, Charles River, Margate, U.K.) were used in this study. Rats were anaesthetised with a ketamine (100 mg/ml) and xylazine (20 mg/ml) mixture (2:1; 1.5 ml/kg, i.p.) and anaesthesia was maintained by supplementary injections (200 μg/kg i.p.) of ketamine/xylazine. Buprenorphine was administered at a dose of 0.1 mg/kg s.c. (0.5 ml/kg). Rats were then, placed onto a thermostatically controlled heating mat (Harvard Apparatus Ltd., Kent, U.K.) set at 37° C. A midline laparotomy was then performed. The anatomical right kidney was removed following permanent ligation of the renal artery and vein. The left renal pedicle (consisting of the renal artery, vein and nerve) was isolated and clamped using a non-traumatic microvascular clamp at time 0 for 30 min. Body temperature was maintained at 35±1° C. during ischaemia by means of measuring rectal temperature with a thermometer. After 30 min of unilateral renal ischaemia, the clamp was removed to allow reperfusion for 48 h. […]
Following the reperfusion period, ˜3.5 ml of blood was taken from the right ventricle of the heart via cardiac puncture into non-heparinised 5 ml syringes and immediately decanted into 1.3 ml serum gel tubes (Sarstedt, Germany). […] All biochemical markers in serum and urine were measured in a blinded fashion by a commercial veterinary testing laboratory (IDEXX Ltd, West Sussex, UK). […] Creatinine clearance is used as an indicator of glomerular dysfunction and is calculated as follows
Fractional excretion of sodium is used as an indicator of tubular dysfunction and is calculated as follows: […]
All data in the text and figures are presented as mean±SEM of n observations, where n represents the number of animals studied. All statistical analysis was calculated using GraphPad Prism 6 (GraphPad Software, San Diego, Calif., USA). Biochemical data was analysed by one-way ANOVA for data representing more than two groups, followed by a Dunnett's post hoc test for comparison of sham/treated groups with the control vehicle. […]
The test system of assay [3] is rats subjected to burn injury. The assay can be described thus: Organ injury and dysfunction induced by burn injury in the rat. As to conditions: 3 mg/kg i.v. 30 min prior to and 30 min after burn injury, 6 h after burn. On the procedure: Twenty-two male Wistar rats (Harlan, Udine, Italy) weighing 300 to 350 g were anaesthetised with sodium pentobarbital (Eutasil™, 60 mg/kg i.p.; Sanofi Veterinária, Algés, Portugal), which was supplemented as required. Anaesthetised rats were shaved (dorsum and abdomen) and placed onto a thermostatically controlled heating mat (Harvard Apparatus Ltd, Kent, U.K.) and body temperature maintained at 37±1° C. by means of a rectal probe attached to a homeothermic blanket. A tracheotomy was performed to maintain airway patency and to facilitate spontaneous respiration. Thirty minutes prior to burn injury, rats were treated with vehicle or drug, as described in section 3.2. To induce burn injury, a 60% third degree skin burn was induced by immersing dorsal shaved skin in 99° C. water for 10 s using a synthetic foam template. The rats were then dried and placed over the heating mat. Rats were sacrificed at 6 hours after burn injury by overdose of the anaesthetic and serum samples obtained for analysis of organ injury and dysfunction. Rats were randomly allocated into the following groups: • (i) Sham (n=4) • (ii) Burn+10% DMSO (n=10) • (iii) Burn+Artesunate (n=9) Sham-operated rats underwent identical surgical procedures but without burn injury (immersed in room temperature water). Animals received either 10% DMSO (1 ml/kg i.v.) or artesunate (3 mg/kg i.v.) 30 min prior to burn injury and 30 min after burn injury Each data point represents measurements obtained from up to 10 separate animals. Data was assessed using Mann-Whitney U test.

Setting [4] is: 1 mg/kg i.v. on resuscitation, P>0.05.
[5] abbreviates: 3 mg/kg i.v. on resuscitation, P<0.005.
Setting [6] is: 3 mg/kg i.v. on resuscitation, P<0.05.
Where [7] appears, read: 10 mg/kg i.v. on resuscitation, P<0.005.
The mark [8] stands for this setting: 10 mg/kg i.v. on resuscitation, P<0.05.

As to `C[C@H]1[C@H](OC(=O)CCC(=O)O)O[C@@H]2O[C@@]3(C)CC[C@H]4[C@H](C)CC[C@@H]1[C@@]24OO3` [artesunate], the “rise in serum creatinine” value in assay [1] (setting [4]) is “no significant effect”; in assay [1] (setting [5]), “significantly attenuated”; in assay [1] (setting [7]) it was “significantly attenuated”; in assay [3] (vs burn + vehicle, P<0.05), “significantly attenuated”. Also, the “rise in serum urea” value is listed as “no significant effect” in assay [1] (setting [4]); “significantly attenuated” in assay [1] (setting [6]); “significantly attenuated” in assay [3] (vs burn + vehicle, P<0.05). Also, the “decline in MAP caused by haemorrhage during the resuscitation phase” value was “failed to attenuate” in assay [1] (setting [4]); “failed to attenuate” in assay [1] (3 mg/kg i.v. on resuscitation, P>0.05); “failed to attenuate” in assay [1] (10 mg/kg i.v. on resuscitation, P>0.05). Further, the “rise in serum ALT” value is reported as “no significant effect” in assay [1] (setting [4]), “significantly attenuated” in assay [1] (setting [5]), “significantly attenuated” in assay [1] (setting [7]) and “no significant effect” in assay [3] (P>0.05). Also, the “rise in serum AST” value in assay [1] (setting [4]) is given as “no significant effect”; in assay [1] (setting [6]), “significantly attenuated”; in assay [1] (setting [8]) it was “significantly attenuated”; in assay [3] (P>0.05), “no significant effect”. Moreover, the “rise in serum creatinine kinase” value in assay [1] (setting [4]) is “no significant effect”; in assay [1] (setting [6]) it was “significantly attenuated”; in assay [1] (setting [8]) it was “significantly attenuated”. Besides, the “fractional excretion of sodium” value in assay [2] (IRI+Vehicle 4.45±0.65) was determined as 1.90±0.17%. The serum urea in assay [2] (IRI+Vehicle 34.13±2.23) was determined as 21.63 ± 1.51 mmol/L. The molecule also registered a serum creatinine in assay [2] (IRI+Vehicle 205.90±22.23) of 115.4 ± 9.72 µmol/L.
